What was measured:
Mouse microglia [1] = assay: NO production (Griess assay), LPS/IFNγ-activated mouse microglia; assay type: cell-based; conditions: for Inhibition of NO production (%) Mouse microglia 10 μM: 24 hours, 1 μM GABA, LPS/IFNγ; for inhibition at 10 µM: Mus musculus, Microglia, 24 h
RAW macrophages [2] = assay: NO production (Griess assay), LPS/IFNγ-activated RAW264.7 macrophages; assay type: cell-based, mouse; conditions: for Inhibition of NO production (%) RAW macrophages 10 μM: 24 hours, 1 μM GABA, LPS/IFNγ; for inhibition at 10 µM: Mus musculus, Macrophage, 24 h
Mouse microglia [3] = assay: Cell viability (CellTiter-Glo), mouse microglia; assay type: cell-based; conditions: 50 μM, CellTiter-Glo
Method in brief: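 Mouse microglia (1×10^6 cells/mL) activated with 50 ng/ml LPS plus 150 U/mL IFNγ, incubated with compounds ~24 h at 37° C. Viability of remaining cells read by CellTiter-Glo luminescence after supernatant removal for Griess NO assay; […].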

HEPG2 = assay: Viability assay (CellTiter-Glo), HEPG2; assay type: cell-based, human; conditions: for Cell viability (%) HEPG2 120 μM: CellTiter-Glo
Procedure: (§1) The screen identified several compounds that reduced NO in activated microglia and macrophages. The tested compounds included achiral and chiral imidazodiazepines and benzodiazepines. In general, microglia were more sensitive to compound treatment with more pronounced reduction of NO than macrophages. […] Cell viability assays with HEK293 (kidney) and HepG2 (liver) cells were conducted in a concentration dependent manner. A limited number of compounds, such as GL-III-63, GL-III-76A, and GL-III-77, were toxic at 120 μM.
(§2) Viability assay. Human liver hepatocellular carcinoma (HEPG2) and human embryonic kidney 293T (HEK293T) cell lines were purchased (ATCC) and cultured in 75 cm^2 flasks (CellStar). Cells were grown in DMEM/High Glucose (Hyclone, #SH3024301) media to which non-essential amino acids (Hyclone, #SH30238.01), 10 mM HEPES (Hyclone, #SH302237.01), 5×10^6 units of penicillin and streptomycin (Hyclone, #SV30010), and 10% of heat inactivated fetal bovine serum (Gibco, #10082147) were added. Cells were harvested using 0.05% Trypsin (Hyclone, #SH3023601), washed with PBS, and dispensed into sterile white, optical bottom 384-well plates (NUNC, #142762). After three hours, small molecule DMSO solutions were transferred with a Tecan Freedom EVO liquid handling system equipped with a 100 nL pin tool (V&P Scientific). The controls were 3-dibutylamino-1-(4-hexyl-phenyl)-propan-1-one (25 mM in DMSO, positive control) and DMSO (negative control). The cells were incubated for 48 hours followed by the addition of CellTiter-Glo™, a luminescence-based cell viability assay (Promega, Madison, WI). All luminescence readings were performed on a Tecan Infinite M1000 plate reader. The assay was carried out in quadruplet with two independent runs. The data were analyzed by nonlinear regression.

HEK293 = assay: Viability assay (CellTiter-Glo), HEK293; assay type: cell-based, human; conditions: for Cell viability (%) HEK293 120 μM: CellTiter-Glo
Procedure: as §1, §2

RAW macrophages [4] = assay: Cell viability (CellTiter-Glo), RAW macrophages; assay type: cell-based, mouse; conditions: CellTiter-Glo

Row | Compound | Inhibition of NO production (%) Mouse microglia 10 μM (Mouse microglia [1]) [%] | Inhibition of NO production (%) RAW macrophages 10 μM (RAW macrophages [2]) [%] | Cell viability (%) Mouse microglia 50 μM (Mouse microglia [3]) [%] | Cell viability (%) HEPG2 120 μM (HEPG2) [%] | Cell viability (%) HEK293 120 μM (HEK293) [%] | Cell viability (%) RAW macrophages 50 μM (RAW macrophages [4]) [%] | toxicity at 120 μM (in words) (HEPG2; HepG2, 120 μM) | toxicity at 120 μM (in words) (HEK293; HEK293, 120 μM) | inhibition at 10 µM (Mouse microglia [1]) [%] | inhibition at 10 µM (RAW macrophages [2]) [%]
1 | C#Cc1ccc2c(c1)C(c1ccccc1F)=NCc1c(C(=O)OCCCO)ncn1-2 [GL-II-80] | 38 ± 8 | 5 ± 3 | 85 ± 1 | 100 ± 9 | 76 ± 8 | 100 ± 2 |  |  |  | 
2 | C#Cc1ccc2c(c1)C(c1ccccc1F)=NC(C)C(=O)N2C (centres unmarked) [GL-III-24] | 67 ± 12 | 68 ± 8 | 98 ± 5 | 91 ± 12 | 78 ± 6 | 100 ± 12 |  |  |  | 
3 | C#Cc1ccc2c(c1)C(c1ccccc1F)=NC(C)C(=O)N2C (centres unmarked) [GL-III-25] | 25 ± 10 | 38 ± 9 | 98 ± 4 | 100 ± 5 | 93 ± 4 | 100 ± 8 |  |  |  | 
4 | C#Cc1ccc2c(c1)C(c1ccccn1)=N[C@H](C)C(=O)N2 [GL-III-27] | 29 ± 8 | 1 ± 3 | 86 ± 8 | 77 ± 7 | 91 ± 2 | 100 ± 4 |  |  |  | 
5 | CC1N=C(c2ccccc2F)c2cc(Br)ccc2-n2cnc(C=O)c21 (centres unmarked) [GL-III-35] | 17 ± 7 | 0 ± 4 | 100 ± 8 | 98 ± 8 | 79 ± 8 | 100 ± 2 |  |  |  | 
6 | CC1N=C(c2ccccc2F)c2cc(Cl)ccc2NC1=O (centres unmarked) [GL-III-52] | 57 ± 11 | 2 ± 2 | 85 ± 8 | 81 ± 9 | 73 ± 8 | 97 ± 8 |  |  |  | 
7 | CCOC(=O)c1ncn2c1[C@@H](C)N=C(c1ccccc1F)c1cc(Cl)ccc1-2 [GL-III-53] | 85 ± 14 | 3 ± 2 | 72 ± 7 | 94 ± 10 | 47 ± 10 | 97 ± 7 |  |  |  | 
8 | C#Cc1ccc2c(c1)C(c1ccccc1)=NCC(=O)N2 [GL-III-59] | 43 ± 7 | 8 ± 1 | 96 ± 4 | 100 ± 2 | 100 ± 4 | 100 ± 3 |  |  |  | 
9 | CCNC(=O)c1ncn2c1[C@@H](C)N=C(c1ccccc1F)c1cc(Br)ccc1-2 [GL-III-67] | 33 ± 1 | 4 ± 2 | 85 ± 10 | 100 ± 9 | 66 ± 6 | 100 ± 7 |  |  |  | 
10 | CC1N=C(c2ccccc2F)c2cc(C#C[Si](C)(C)C)ccc2-n2cnc(-c3cnco3)c21 (centres unmarked) [GL-III-72] | 21 ± 7 | 57 ± 7 | 100 ± 10 | 100 ± 3 | 64 ± 8 | 77 ± 4 |  |  |  | 
11 | CC1N=C(c2ccccc2F)c2cc(Br)ccc2-n2cnc(C=O)c21 (centres unmarked) [GL-III-75] | 44 ± 2 | 3 ± 5 | 87 ± 7 | 74 ± 6 | 73 ± 2 | 100 ± 2 |  |  |  | 
12 | CC1N=C(c2ccccc2F)c2cc(C#C[Si](C)(C)C)ccc2-n2cnc(-c3cnco3)c21 (centres unmarked) [GL-III-77] | 31 ± 2 | 29 ± 2 | 98 ± 4 | 0 ± 4 | 0 ± 2 | 85 ± 3 | toxic | toxic |  | 
13 | C#Cc1ccc2c(c1)C(c1ccccc1F)=NC(C)c1c(C(=S)NC)ncn1-2 (centres unmarked) [GL-III-84] | 32 ± 4 | 10 ± 5 | 96 ± 8 | 100 ± 10 | 64 ± 5 | 100 ± 12 |  |  |  | 
14 | C#Cc1ccc2c(c1)C(c1ccccc1F)=NC(C)c1c(C(=S)N(C)C)ncn1-2 (centres unmarked) [GL-III-85] | 34 ± 8 | 0 ± 2 | 84 ± 12 | 100 ± 11 | 70 ± 12 | 100 ± 10 |  |  |  | 
15 | C#Cc1ccc2c(c1)C(c1ccccc1F)=NC(C)c1c(C(=S)NCC)ncn1-2 (centres unmarked) [GL-III-86] | 39 ± 7 | 7 ± 4 | 99 ± 15 | 100 ± 8 | 66 ± 10 | 100 ± 14 |  |  |  | 
16 | C#Cc1ccc2c(c1)C(c1ccccc1F)=NC(C)c1c(C(=S)NC3CC3)ncn1-2 (centres unmarked) [GL-III-87] | 23 ± 7 | 0 ± 1 | 100 ± 2 | 100 ± 5 | 90 ± 10 | 100 ± 7 |  |  |  | 
17 | C#Cc1ccc2c(c1)C(c1ccccn1)=N[C@H](C)c1c(-c3nc(CC)no3)ncn1-2 [GL-III-97] | 11 ± 6 | 6 ± 1 | 100 ± 4 | 100 ± 12 | 54 ± 9 | 98 ± 3 |  |  |  | 
18 | CCc1noc(-c2ncn3c2[C@@H](C)N=C(c2ccccc2F)c2cc(Br)ccc2-3)n1 [GL-III-98, (R)-5-(8-Bromo-6-(2-fluorophenyl)-4-methyl-4H-benzo[f]imidazo[1,5-a][1,4]diazepin-3-yl)-3-ethyl-1,2,4-oxadiazole] |  |  | 83 ± 6 | 56 ± 5 | 42 ± 8 | 100 ± 11 |  |  | 75 ± 9 | 1 ± 4
19 | CCc1noc(-c2ncn3c2CN=C(c2ccccn2)c2cc(Br)ccc2-3)n1 [GL-III-99] | 49 ± 5 | 19 ± 3 | 95 ± 9 | 93 ± 7 | 87 ± 11 | 100 ± 9 |  |  |  | 
20 | CC(C)c1noc(-c2ncn3c2[C@@H](C)N=C(c2ccccc2F)c2cc(Br)ccc2-3)n1 [GL-IV-01, (R)-5-(8-Bromo-6-(2-fluorophenyl)-4-methyl-4H-benzo[f]imidazo[1,5-a][1,4]diazepin-3-yl)-3-isopropyl-1,2,4-oxadiazole] |  |  | 100 ± 9 | 100 ± 9 | 72 ± 8 | 100 ± 9 |  |  | 56 ± 11 | 17 ± 7
21 | CC(C)c1noc(-c2ncn3c2[C@@H](C)N=C(c2ccccc2F)c2cc(C4CC4)ccc2-3)n1 [GL-IV-04, (R)-5-(8-Cyclopropyl-6-(2-fluorophenyl)-4-methyl-4H-benzo[f]imidazo[1,5-a][1,4]diazepin-3-yl)-3-isoproyl-1,2,4-oxadiazole] |  |  | 86 ± 6 | 100 ± 6 | 71 ± 6 | 100 ± 7 |  |  | 62 ± 8 | 11 ± 2
